Results: patent publication US20170071976A1, “PHARMACEUTICAL SOLUTION HAVING ANTI-TUMOR EFFECT-ENHANCING AND TOXICITY-REDUCING EFFECT, AND PHARMACEUTICAL COMPOSITION COMPRISING SAME” (priority 2014, published 2017)
Read-outs that look alike come from different tables or passages of the source. Marks after values point to notes of the source that are not given here.

How the values were obtained:
[1] = test system: human pancreatic cancer PANC-1 cells inoculated into the peritoneal cavity; experiment: Survival of nude mice bearing PANC-1 cells, 42° C. intraperitoneal retention lavage with HP-β-CD or sodium chloride deuterium oxide solution and gemcitabine; format: in vivo; details: 42° C. NS 10 ml/kg + gemcitabine 20 mg/kg, i.p. lavage x 5
Method: Effect of 42° C. hyperthermicintraperitoneal retention lavage with hydroxypropyl-β-cyclodextrin (HP-β-CD) deuterium oxide solution in combination with gemcitabine (GEM) on the survival of nude mice bearing human pancreatic cancer PANC-1 cell.
Animal: 4 to 5 week-aged male nude mice, provided by Shanghai SIPPR-BK Laboratory Animal Co. Ltd.
Cell lines: human pancreatic cancer PANC-1 cell line was provided by NANJING KEYGEN BIOTECH.
Modeling: 0.2 ml suspension of pancreatic cancer PANC-1 cells containing 1×10^7 cells/ml (2×10^6 cells in total) was inoculated into the peritoneal cavity of the nude mice.
Grouping and dosing: the mouse model was established 7 to 8 days after inoculation into the nude mice, and the mice were randomized with 18 animals/group.
Gemcitabine was separately dissolved in the HP-β-CD deuterium oxide solution at 42° C., and in the sodium chloride deuterium oxide solution at 42° C., for intraperitoneal lavage of tumor-bearing mice.
Blank control group (42° C. sodium chloride physiological solution, 10 ml/kg); 2). Normal chemo group (42° C. sodium chloride physiological solution, 10 ml/kg+gemcitabine 20 mg/kg); 3). Low-dose sodium chloride deuterium oxide solution+gemcitabine group (42° C. sodium chloride deuterium oxide solution, 5 ml/kg+gemcitabine 20 mg/kg); 4). […]

[2] = test system: xenograft tumors from human lung cancer A549 cells; experiment: A549 xenograft in nude mice, intravenous deuterium oxide in combination with gemcitabine; details: for Inhibition (%): tumor weight
Method: (§1) Animal: 6 to 7 week-aged female BALB/c nude mice, each weighing 18 to 20 g, provided by Shanghai SLAC Laboratory Animal Co. Ltd.
(§2) Test drugs: gemcitabine (GEM) and the sodium chloride deuterium oxide solution prepared in Example 1.
(§3) Tumor cells were resuscitated and inoculated, and sterile sodium chloride physiological solution was added thereto to make a cell suspension which was subcutaneously inoculated into the upper right axillary fossa of animals. 5×10^6 tumor cells were inoculated into each animal.
(§4) The diameter of xenograft tumors in the nude mice was measured with a vernier caliper, and 10 days after inoculation, when tumors grew to 100 to 110 cm^3, the animals were randomized with 8 mice per group. Meanwhile drugs were administered by injection into tail vein, once every three days, for 21 successive days. By measuring the tumor diameter, the anti-tumor efficacy of test samples was dynamically observed. Meanwhile the body weight of animals was also recorded to observe the toxicity of the test samples. 21 days after administration, the nude mice were sacrificed, and tumors were harvested by surgery, weighed and photographed.
(§5) 6) Test group 2: gemcitabine (10 mg/kg) diluted in the sodium chloride deuterium oxide solution (10 ml/kg). 7) Test group 3: gemcitabine (10 ml/kg) diluted in the sodium chloride deuterium oxide solution (20 ml/kg).

[3] = test system: human lung cancer A549 cells; experiment: Cell invasion assayed by Transwell; format: cell-based; details: invaded A549 cells, control 178.3 ± 13.8
Method: Cell lines: human colon cancer HCT-116 cells and human lung cancer A549 cells were provided by NANJING […] BIOTECH. CO., LTD. […] The cell suspension was centrifuged at 800 to 1,000 rpm for 5 min, and the supernatant was discarded; 1.4. A complete culture medium was added to the cell pellet which was well mixed by gentle pipetting, the cell suspension was transferred to a culture flask, and the cells were cultured by supplementing culture medium. 1. […] After incubation of cells with the test drugs for 24 hours, serum was removed, and the cells were incubated under starvation with an incomplete culture medium for 24 hours; 3. Matrigel was placed at 4° C. in advance to thaw overnight; 4. Thawed Matrigel was 1:1 diluted with the incomplete culture medium, 30 μl diluted Matrigel was added to the upper compartment of Transwell and incubated at 37° C. for 120 min to gel the Matrigel; 5. Cells from different groups were digested, counted, and then adjusted to a density of 1×10^5 cells/ml with the incomplete culture medium, 100 μl cell suspension was added to the upper compartment (small compartment) of Transwell, and 500 μl medium containing 20% FBS was added to the lower compartment of Transwell; 6. A 24-well cell culture plate was placed in an incubator at 37° C. and 5% CO2 to culture the cells for 24 hours; 7. […] The assay was repeated one more time.

[4] = test system: xenograft tumors from human breast cancer MCF-7 cells; experiment: MCF-7 xenograft in nude mice, intravenous deuterium oxide in combination with gemcitabine; format: in vivo, BALB/c nude mice; details: for Body weight (g) End, given as change / Body weight (g) Initial / Bone marrow DNA content (OD): mouse, in vivo; for Inhibition (%): tumor weight
Method: Ltd. Cell lines: human breast cancer MCF-7 cells were provided by NANJING […] BIOTECH. CO., LTD. […] Bone marrow nucleated cells were isolated by a routine method, DNA was extracted from the cells, the OD value was measured in a UV-260 spectrometer as a representative of the DNA content, and inhibition of DNA synthesis by the test samples was observed. The test used 7 groups in total, with 8 animals per group. […] Statistics: the same as Example 21.

[5] = test system: human lung cancer A549 cells; experiment: Cell cycle by PI single staining (flow cytometry); format: cell-based; details: GM 250 nM in NS, 72 hours
Method: Effect of deuterium oxide on the cell cycle of human lung cancer A549 cells and human colon cancer HCT-116 cells Human lung cancer A549 cells and human colon cancer HCT-116 cells were provided by NANJING […] BIOTECH. CO., LTD., and cultured in an incubator at 37° C., 5% CO2 and saturated humidity. A KGA511 Cell cycle assay kit was provided by NANJING […] BIOTECH. CO., LTD. The flow cytometer was FACS Calibur provided by Becton-Dickinson, US. […] The cell suspension was centrifuged at 800 to 1,000 rpm for 5 min, and the supernatant was discarded; 1.4. A complete culture medium was added to the cell pellet which was well mixed by gentle pipetting, the cell suspension was transferred to a culture flask, and the cells were cultured by supplementing culture medium. […] When all the cells became round, an equal volume of culture medium containing serum was added to cease the digestion; 2.4. The cells were blown by pipetting to suspend, then drawn into a 15 ml centrifugal tube, and centrifuged at 1000 rpm for 5 min; 2.5. […] 1. Cells growing in the exponential phase were digested and inoculated to a 6-well plate; on the next day, after the cells attached to the wall, cell culture media containing corresponding test drugs were added according to different groups, and a negative control group was also set; 2. […] The cells were washed with PBS once (centrifuged at 2,000 rpm for 5 min), and 5×10^5 cells were collected; 4. […] In a detection apparatus, red fluorescence with an excitation wavelength of 488 nm was recorded.

[6] = test system: xenograft tumors from human lung cancer A549 cells; details: mouse, in vivo
Method: as §1, §2, §3, §4, §5

[7] = test system: superficial bladder cancer (SBC); details: mitomycin dissolved in only a sodium chloride solution, intrabladder perfusion and lavage; cited from earlier work
[8] = GEM(H) 20 mg/kg × 11, tail vein, 20 mg/kg
[9] = GEM(H) 20 mg/kg × 11, tail vein, listed as gemcitabine, 20 mg/kg
[10] = GEM(L) 10 mg/kg × 11, tail vein, 10 mg/kg
[11] = GEM(L) 10 mg/kg × 11, tail vein, listed as gemcitabine, 10 mg/kg
[12] = GEM(H) 20 mg/kg × 11, tail vein

Nc1ccn([C@@H]2O[C@H](CO)[C@@H](O)C2(F)F)c(=O)n1 [Gemcitabine, gemcitabine]
T/C(%) [1]: 150.8% | MST ([1]; control 11.8 ± 2.2): 17.8 ± 1.8 days | Tumor weight [2, 8]: 1.04 ± 0.13 g | Tumor weight [2, 9]: 1.04 ± 0.13 g | Tumor weight [2, 10]: 2.23 ± 0.2 g | Tumor weight [2, 11]: 2.23 ± 0.2 g | Inhibition (%) [2, 8]: 64.54* % | Inhibition (%) [2, 9]: 64.54% | Inhibition (%) [2, 10]: 23.64% | Inhibition (%) [2, 11]: 23.6% | Number of cells ([3]; GEM 1.95 nM): 160.0 ± 6.6 | Number of cells ([3]; GEM 3.9 nM): 112.7 ± 3.5 | Number of cells ([3]; GEM 7.8 nM): 59.0 ± 2.0 | Number of cells ([3]; GEM 15.6 nM): 51.7 ± 3.1 | Number of cells ([3]; GEM 31.2 nM): 37.3 ± 2.3 | Number of cells ([3]; GEM 62.5 nM): 22.3 ± 0.6 | Number of cells ([3]; GEM 125 nM): 16.0 ± 1.0 | Number of cells ([3]; GEM 250 nM): 9.7 ± 2.1 | tumor volume ([4]; 21 days after administration, gemcitabine 10 mg/kg alone): 2.757±0.342 cm^3 | Tumor weight [4, 12]: 1.57 ± 0.21 g | Tumor weight ([4]; GEM(L) 10 mg/kg × 11, tail vein): 2.48 ± 0.41 g | T/C (relative tumor growth ratio) ([4]; gemcitabine 10 mg/kg alone, vs negative control): 60.39% | Body weight (g) End, given as change ([4]; 10 mg/kg): +2.9 g | Body weight (g) Initial ([4]; 10 mg/kg): 18.0 g | Bone marrow DNA content (OD) ([4]; 10 mg/kg): 0.908 ± 0.2543 OD | Body weight (g) End, given as change ([4]; 20 mg/kg): +0.9 g | Body weight (g) Initial ([4]; 20 mg/kg): 18.1 g | Bone marrow DNA content (OD) ([4]; 20 mg/kg): 0.823 ± 0.1416 OD | Inhibition (%) [4, 12]: 61.42%* | Inhibition (%) [4, 10]: 39.06% | Inhibition (%) [4, 11]: 39.18% | G1 Phase [5]: 73.73 ± 3.73% | G2 Phase [5]: 10.71 ± 2.39% | S Phase [5]: 15.55 ± 5.51% | Body weight (g) End, given as change ([6]; 10 mg/kg): +0.4 g | Body weight (g) Initial ([6]; 10 mg/kg): 18.0 g | Body weight (g) End, given as change ([6]; 20 mg/kg): +0.5 g | Body weight (g) Initial ([6]; 20 mg/kg): 18.4 g

CO[C@@]12[C@H](COC(N)=O)C3=C(C(=O)C(C)=C(N)C3=O)N1C[C@@H]1N[C@@H]12 [mitomycin]
tumor recurrence rate [7]: 78%
